The source of these data is patent publication US20140273093A1, “METHODS OF PRODUCING ANTIBODIES IN YEAST” (BRISTOL-MYERS SQUIBB COMPANY, priority 2013, published 2014).

For this assay, the system named is P. pastoris. Description: P. pastoris fed-batch fermentation Run 01MAY11: effects of hydroxyurea on cell growth and anti-IL-6 antibody productivity. It counts as cell-based, Pichia pastoris. Particulars: for Sup Titer / WCW / WB Titer: Lots T5, T6 & T10; for Sup Titer / WB Titer: hydroxyurea 2.6-2.8 g/L; for WCW: hydroxyurea 2.6-2.8 g/L added 5 hours after feed start; for WB Titer: calculated from supernatant titer and WCW. Here is the method: The glucose and ethanol were measured by YSI 2700 (YSI Incorporated, Yellow Springs, Ohio), O2 and CO2 of the exhaust line were measured by Questor GP Process Mass Spectrometer (ABB Extrel, Pittsburg, Pa.) and the RQ value was calculated using below Equation [1]. The wet cell weight (WCW) was measured by centrifuging 1 milliliter (mL) fermentation broth at 13,200 rpm for 10 minutes, weighing pellet, and calculated ratio of pellets weight (g) over volume (mL). The supernatant titer (g/L) was measured by the HPLC method and the whole broth (WB) titer was then calculated by below Equation [2].
WB_Titer=Supernatant_Titer*(1−WCW/1000)
The treatment cultures were operated the same way plus adding hydroxyurea 5 hours after feed start.

`NC(=O)NO` [Hydroxyurea]: the “average whole broth titer” value (90 hours run time, three hydroxyurea treatment lots, control 59.8) is 75 normalized units. In addition, for the setting “Age 59 h”, the “Sup Titer” value is 83.9 ± 2.2 Normalized, the WCW came out at 437 ± 17 g/kg and the “WB Titer” value is listed as 47.2 ± 1.8 Normalized. Where the note is “Age 90 h”, the “Sup Titer” value is reported as 123.3 ± 5.8 Normalized, the WCW is reported as 392 ± 20 g/kg and the “WB Titer” value is 75.0 ± 2.7 Normalized. Further, the “WCW reached/maintained by hydroxyurea treatment lots” value (after peak cell density at 30-40 hours, control lots ~400 g/Kg) is reported as approximately 450 g/kg.
